# According to patent publication US20080108573A1, “Compositions And Methods For Treatment Of Cardiovascular Disease” (priority 2004, published 2008):
# “Also recorded” adds a separate entry of the source.
# Key:
# [1] = tested on: SHR and WKY rats on low/high salt diet, L-NAME plus high salt diet, or streptozotocin induced diabetes; test: Preliminary four-week VIP infusion in rat models of myocardial fibrosis (Example 1); type: in vivo; conditions: VIP 7.2 nmol/kg/day via Alzet mini pump, four weeks, vs vehicle
# Text: Further preliminary experiments have been conducted on a number of animal models, which encompass a range of fibrous tissue replacement, varying from mild to moderate to severe. The experiments on the animal models encompassed a variety of aetiologies (alone and in combination) and a range of levels of induced fibrosis. For these experiments two types of rats were used, spontaneously hypertensive rats (SHR) and normotensive control Wistar-Kyoto rats (WKY). The WKY rats were given: 1) low salt diet, 2) high salt diet, or 3) L-NAME (ω-monomethyl-nitro-L-arginine; 10 mg/kg/day) plus high salt diet. The SHR rats were given low or high salt diets. The effect of VIP infusion in diabetic heart disease was also studied in the WKY rate with streptozotocin induced diabetes.
# In each treatment group, rats were randomised to VIP or vehicle infusion (n=24 in each group) for four weeks. VIP was administered via Alzet mini pump at a rate of 7.2 nmol/kg/day.
# After four weeks, the rats were anaesthetised and the hearts were harvested. Myocardial VIP concentrations and myocardial fibrosis were quantitated.
# [2] = tested on: WKY rats on low, intermediate, high salt diet or high salt diet plus L-NAME; test: Acute VIP infusion: uptake of VIP by the myocardium (Examples 1 and 2); type: in vivo; conditions: VIP 10 pmol/kg/min for one hour, rat models with increasing degree of fibrosis
# Experimental: In preliminary studies a series of acute infusion experiments have been conducted in animal models.
# Fourteen week old WKY rats were randomised to low salt diet (0.008%), intermediate salt diet (2.2%), high salt diet (4.4%) or high salt diet plus L-NAME (10 mg/kg/day) in the drinking water for 4 weeks (n=16 rats per group). On the day of the experiment the rats were anaesthetised and venous and arterial cannulae inserted. After a one hour rest equilibration period the rats were randomised to vehicle control (Haemaccell, Aventis) or VIP (10 pmol/kg/min) infusion for one hour at an infusion rate of 0.017 ml/min. The hearts were then harvested, myocardial VIP concentrations were measured and myocardial fibrosis quantitated.
# The difference between the mean myocardial VIP concentrations after VIP or control infusion is a measure of VIP uptake by the heart.
# (§1) VIP was measured by radioimmunoassay in known manner (see Davis R. E., Shelley S., Macdonald G. J. & Duggan K. A. (1992) The effects of a high sodium diet on the metabolism and secretion of vasoactive intestinal peptide in the rabbit. J. Physiol. 451:17-23. Duggan K. A., Ye V. Z. C., Jones D. M. Davis R. E. & Macdonald G. J. (1995) Effects of Endopeptidase 24.11 blockade on plasma and tissue concentrations of vasoactive intestinal peptide Clin. Sci. 89:267-271). […]
# [3] = tested on: WKY rat fed a high salt diet; WKY rat fed a high salt diet and given L-NAME; test: Effect of VIP infusion on fibrosis in animal models of fibrosis (Example 3); type: in vivo; conditions: VIP 5 pmol/kg/min, 4 weeks via Alzet minipump; WKY high salt diet and high salt diet plus L-NAME (FIGS. 2 and 3)
# Experimental: Three animal models of myocardial fibrosis were used (animals obtained from Australian Animal Resources, Perth, Western Australia, Australia) • i) WKY rat fed a high salt diet • ii) WKY rat fed a high salt diet and given L-NAME (ω-monomethyl-nitro-L-arginine, Sigma Chemical Co.) 10 mg/kg/day in the drinking water • iii) WKY rats with diabetes induced by streptozotocin injection 60 mg/kg
# In each model the rats were randomised to VIP (H-[…]NH2, obtained from Auspep, Australia) or vehicle control (Haemaccel, Aventis) infusion for 4 weeks via Alzet minipump (n=6-8 each experimental group). The dose of VIP was 5 pmol/kg/min.
# In models i) and ii) 14 week old WKY rats were commenced on high salt diet or high salt diet plus L-NAME. […] Myocardial VIP and myocardial fibrosis were quantitated. […]
# Myocardial VIP concentrations and myocardial fibrosis were quantitiated.
# as §1
# [4] = tested on: WKY rats on high salt diet, high salt diet plus L-NAME, or with streptozotocin induced diabetes; test: Regression of existing myocardial fibrosis after VIP infusion (Example 4); type: in vivo, rat; conditions: VIP 5 pmol/kg/min, 4 weeks, three models: high salt, streptozotocin diabetes (FIGS. 4 to 6)
# Experimental: (§2) VIP was measured by radioimmunoassay in known manner (see Davis R. E., Shelley S., Macdonald G. J. & Duggan K. A. (1992) The effects of a high sodium diet on the metabolism and secretion of vasoactive intestinal peptide in the rabbit. J. Physiol. 451:17-23. Duggan K. A., Ye V. Z. C., Jones D. M. Davis R. E. & Macdonald G. J. (1995) Effects of Endopeptidase 24.11 blockade on plasma and tissue concentrations of vasoactive intestinal peptide Clin. Sci. 89:267-271). The degree of myocardial fibrosis was quantitated by two methods in known manner (refer Ye V Z C, Hodge G, Yong J L C & Duggan K A (2002) Early myocardial fibrosis is associated with depletion of vasoactive intestinal peptide in the heart Exp. Physiol 87:539-546 Ye V Z C, Hodge G, Yong J L C & Duggan K A (2003) Myocardial VIP and myocardial fibrosis induced by nitric oxide synthase inhibition in the rat Acta Physiol. Scand. 179:353-360. Ye V Z C, Hodge G, Yong J L C & Duggan K A (2004) Vasopeptidase inhibition reverses myocardial VIP depletion and decreases myocardial fibrosis in salt sensitive hypertension Europ. J. Pharmacol. 485:235-242). […]
# [5] = tested on: WKY rats on high salt diet or high salt diet plus L-NAME; test: Myocardial VIP content after four week VIP infusion (Example 4); type: in vivo, rat; conditions: four week intravenous infusion of VIP vs vehicle; WKY high salt diet, or high salt diet and L-NAME (FIGS. 7A and 7B)
# Experimental: FIG. 7: A—Myocardial VIP concentrations in WKY rats on a high salt diet after a four week intravenous infusion of VIP or vehicle control. B—Myocardial VIP concentrations in WKY rats on a high salt diet and L-NAME (10 mg/kg) in the drinking water after a four week intravenous infusion of VIP or vehicle control.
# as §2, with “Europ.” for “Europ. J. Pharmacol. 485:235-242).”
# [6] = tested on: isolated rat heart; conditions: isolated rat heart perfused with VIP, ischaemia then reperfusion; cited from earlier work
# [7] = tested on: isolated trabeculae of human hearts; conditions: human hearts of previously healthy individuals; cited from earlier work
smiles,measurement,setting,value
CC[C@H](C)[C@H](NC(=O)[C@H](CO)NC(=O)[C@H](CC(N)=O)NC(=O)[C@H](CC(C)C)NC(=O)[C@H](Cc1ccc(O)cc1)NC(=O)[C@H](CCCCN)NC(=O)[C@H](CCCCN)NC(=O)[C@@H](NC(=O)[C@H](C)NC(=O)[C@H](CCSC)NC(=O)[C@H](CCC(N)=O)NC(=O)[C@H](CCCCN)NC(=O)[C@H](CCCNC(=N)N)NC(=O)[C@H](CC(C)C)NC(=O)[C@H](CCCNC(=N)N)NC(=O)[C@@H](NC(=O)[C@H](Cc1ccc(O)cc1)NC(=O)[C@H](CC(N)=O)NC(=O)[C@H](CC(=O)O)NC(=O)[C@@H](NC(=O)[C@H](Cc1ccccc1)NC(=O)[C@@H](NC(=O)[C@H](C)NC(=O)[C@H](CC(=O)O)NC(=O)[C@H](CO)NC(=O)[C@@H](N)Cc1c[nH]cn1)C(C)C)[C@@H](C)O)[C@@H](C)O)C(C)C)C(=O)N[C@@H](CC(C)C)C(=O)N[C@@H](CC(N)=O)C(N)=O [VIP],"myocardial fibrosis index, treated rats compared to the control groups",[1],significantly lower
same,uptake of VIP by the heart from the plasma (difference between mean myocardial VIP concentrations after VIP or control infusion),[2],"As fibrosis worsens the amount of VIP taken up by the heart increases; also recorded: more avid with increasing degrees of fibrosis; also recorded: the higher the level of fibrosis, the greater the uptake of VIP by the heart; also recorded: found to increase as the degree of fibrosis increased"
same,"myocardial fibrosis index, treated rats compared to the control groups",[3],significantly lower
same,regression of existing myocardial fibrosis,[4],regression of myocardial fibrosis in the three models
same,myocardial content of VIP / uptake of exogenous VIP,[5],clear association between the degree of fibrosis and uptake of exogenous VIP
same,"myocardial function (left ventricular functions, coronary flow, tissue injury)",[6],significant improvement of myocardial function
same,ionotropic effect in atria and ventricles,[7],direct positive ionotropic effect
